16 compounds from ChEMBL document CHEMBL1128371, “Synthesis and structure-activity relationships of side-chain-substituted analogs of the allylamine antimycotic terbinafine lacking the central amino function” (1995) can be followed below.

The subject of one assay is Candida albicans. The experiment in a line: In vitro antifungal activity against Candida albicans 124. In kind it is functional.
Another assay relates to Trichophyton benhamiae. The experiment in a line: In vitro antifungal activity against Trichophyton mentagrophytes. In kind it is functional, Arthroderma benhamiae.
The test system of a further assay is Microsporum canis. Description: In vitro antifungal activity against Microsporum canis. It counts as functional.
The next assay relates to Aspergillus fumigatus. The experiment in a line: In vitro antifungal activity against Aspergillus fumigatus. In kind it is functional.
The test system of another assay is Candida parapsilosis. Description: In vitro antifungal activity against Candida parapsilosis 39. It counts as functional. The following applies: Lodderomyces parapsilosis.
A further assay has as its system Sporothrix schenckii. The experiment in a line: In vitro antifungal activity against Sporothrix schenck ii. It counts as functional.

A word on the MIC: it is the least concentration at which growth counts as inhibited. Lower therefore signals greater potency.

In brackets after ≈: the same amount, converted by molar mass.

For the compound `CC(C/C=C/C#CC(C)(C)N(C)c1ccccc1)Cc1cccc2ccccc12` (stereo not given), the MIC in the assay with Candida albicans, against Trichophyton benhamiae, with Microsporum canis, against Aspergillus fumigatus, with Candida parapsilosis and against Sporothrix schenckii was above 100 µg/mL each time.
Regarding `CN(C/C=C/C#CC(C)(C)C)Cc1cccc2ccccc12` [TERBINAFINE], the minimum inhibitory concentration (MIC) is 25 µg/mL (≈ 85.8 µM) with Candida albicans; 0.003 µg/mL (≈ 0.0103 µM) with Trichophyton benhamiae; 0.006 µg/mL (≈ 0.0206 µM) in the assay with Microsporum canis; 0.8 µg/mL (≈ 2.75 µM) in the assay on Aspergillus fumigatus; 0.8 µg/mL (≈ 2.75 µM) in the assay on Candida parapsilosis; 0.4 µg/mL (≈ 1.37 µM) in the assay on Sporothrix schenckii.
Regarding `CC(C/C=C/C#CC(C)(C)CN)Cc1cccc2ccccc12` (stereo not given), the minimal inhibitory concentration (MIC) is above 50 µg/mL against Candida albicans; 6.25 µg/mL (≈ 20.5 µM) in the assay on Trichophyton benhamiae; 25 µg/mL (≈ 81.8 µM) in the assay on Microsporum canis; 50 µg/mL (≈ 164 µM) against Aspergillus fumigatus; above 50 µg/mL against Candida parapsilosis; 25 µg/mL (≈ 81.8 µM) in the assay with Sporothrix schenckii.
For `CC(C/C=C/C#CC(C)(C)C)Cc1cccc2ccccc12` (stereo not given), the MIC against Candida albicans was above 100 µg/mL; against Trichophyton benhamiae it was 0.4 µg/mL (≈ 1.38 µM); against Microsporum canis, 3.1 µg/mL (≈ 10.7 µM); against Aspergillus fumigatus, above 100 µg/mL; against Candida parapsilosis, above 100 µg/mL; with Sporothrix schenckii, above 100 µg/mL.
Take `COC(=O)C(C)(C)C#C/C=C/CC(C)Cc1cccc2ccccc12` (stereo not given): the MIC against Candida albicans was above 100 µg/mL; with Trichophyton benhamiae, 0.1 µg/mL (≈ 0.299 µM); with Microsporum canis, 0.8 µg/mL (≈ 2.39 µM); against Aspergillus fumigatus, above 100 µg/mL; in the assay on Candida parapsilosis, above 100 µg/mL; in the assay on Sporothrix schenckii, above 100 µg/mL.
With `CC(C/C=C/C#CC(C)(C)N(C)C)Cc1cccc2ccccc12` (stereo not given), the minimum inhibitory concentration (MIC) with Candida albicans turned out to be 50 µg/mL (≈ 156 µM); against Trichophyton benhamiae it was 0.1 µg/mL (≈ 0.313 µM); against Microsporum canis it was 0.2 µg/mL (≈ 0.626 µM); in the assay with Aspergillus fumigatus, 12.5 µg/mL (≈ 39.1 µM); in the assay on Candida parapsilosis, 6.25 µg/mL (≈ 19.6 µM); against Sporothrix schenckii, 3.1 µg/mL (≈ 9.7 µM).
Turning to `CC(C/C=C/C#CC(C)(C)C(N)=O)Cc1cccc2ccccc12` (stereo not given), the MIC in the assay on Candida albicans, against Trichophyton benhamiae, in the assay on Microsporum canis, against Aspergillus fumigatus, against Candida parapsilosis and in the assay with Sporothrix schenckii was above 100 µg/mL throughout.
In the case of `CC(=O)NC(C)(C)C#C/C=C/CC(C)Cc1cccc2ccccc12` (stereo not given), the minimum inhibitory concentration (MIC) against Candida albicans, against Trichophyton benhamiae, in the assay with Microsporum canis, against Aspergillus fumigatus, with Candida parapsilosis and with Sporothrix schenckii was above 50 µg/mL in each case.
Take `CC(C/C=C/C#CC(C)(C)C(=O)O)Cc1cccc2ccccc12` (stereo not given): the MIC against Candida albicans, in the assay on Trichophyton benhamiae, against Microsporum canis, in the assay on Aspergillus fumigatus, against Candida parapsilosis and against Sporothrix schenckii was above 100 µg/mL throughout.
Regarding `CNC(=O)C(C)(C)C#C/C=C/CC(C)Cc1cccc2ccccc12` (stereo not given), the minimal inhibitory concentration (MIC) in the assay with Candida albicans is above 100 µg/mL; in the assay on Trichophyton benhamiae, 0.4 µg/mL (≈ 1.2 µM); in the assay with Microsporum canis, 1.6 µg/mL (≈ 4.8 µM); in the assay on Aspergillus fumigatus it was above 100 µg/mL; in the assay on Candida parapsilosis it was above 100 µg/mL; with Sporothrix schenckii it was above 100 µg/mL.
In the case of `CN(C/C=C/c1ccccc1)Cc1cccc2ccccc12` [NAFTIFINE], the MIC was determined as 0.05 µg/mL (≈ 0.174 µM) in the assay on Trichophyton benhamiae; 0.1 µg/mL (≈ 0.348 µM) in the assay with Microsporum canis; 12.5 µg/mL (≈ 43.5 µM) with Aspergillus fumigatus; 1.6 µg/mL (≈ 5.57 µM) in the assay with Candida parapsilosis; 1.6 µg/mL (≈ 5.57 µM) in the assay on Sporothrix schenckii.
With `CC(C/C=C/C#CC(C)(C)N)Cc1cccc2ccccc12` (stereo not given), the MIC against Candida albicans was above 100 µg/mL; against Trichophyton benhamiae, 1.6 µg/mL (≈ 5.49 µM); in the assay with Microsporum canis it was 3.1 µg/mL (≈ 10.6 µM); against Aspergillus fumigatus, 25 µg/mL (≈ 85.8 µM); against Candida parapsilosis, above 100 µg/mL; in the assay with Sporothrix schenckii, 12.5 µg/mL (≈ 42.9 µM).
Turning to `CC(C/C=C/C#CC(C)(C)[N+](C)(C)C)Cc1cccc2ccccc12` (stereo not given), the minimal inhibitory concentration (MIC) in the assay on Candida albicans is 25 µg/mL; in the assay with Trichophyton benhamiae, above 100 µg/mL; against Microsporum canis it was above 100 µg/mL; with Aspergillus fumigatus, above 100 µg/mL; in the assay with Candida parapsilosis it was 100 µg/mL; in the assay with Sporothrix schenckii, 12.5 µg/mL.
In the case of `CC(C/C=C/C#CC(C)(C)C#N)Cc1cccc2ccccc12` (stereo not given), the minimum inhibitory concentration (MIC) was above 100 µg/mL in the assay with Candida albicans; 0.4 µg/mL (≈ 1.33 µM) in the assay on Trichophyton benhamiae; 12.5 µg/mL (≈ 41.5 µM) against Microsporum canis; above 100 µg/mL against Aspergillus fumigatus; above 100 µg/mL in the assay on Candida parapsilosis; above 100 µg/mL against Sporothrix schenckii.
For the compound `CC(C/C=C/C#CC(C)(C)CO)Cc1cccc2ccccc12` (stereo not given), the MIC in the assay with Candida albicans is above 100 µg/mL; against Trichophyton benhamiae, 3.1 µg/mL (≈ 10.1 µM); in the assay with Microsporum canis it was 100 µg/mL (≈ 326 µM); against Aspergillus fumigatus, above 100 µg/mL; in the assay on Candida parapsilosis it was above 100 µg/mL; in the assay with Sporothrix schenckii, above 100 µg/mL.
Take `CC(C/C=C/C#CC(C)(C)O)Cc1cccc2ccccc12` (stereo not given): the minimum inhibitory concentration (MIC) in the assay on Candida albicans is above 100 µg/mL; with Trichophyton benhamiae, 3.1 µg/mL (≈ 10.6 µM); in the assay with Microsporum canis, above 100 µg/mL; with Aspergillus fumigatus, above 100 µg/mL; against Candida parapsilosis, above 100 µg/mL; in the assay with Sporothrix schenckii it was above 100 µg/mL.
